# Source: publication PMC13184981, “Discovery and Development of a Potent LIMK2 Isoform-Specific Degrader” (ACS Chemical Biology, 2026)
# Assays:
# LIMK2 [1] = target: T1, LIMK2 (Homo sapiens, UniProt P53671); experiment: Western blot of endogenous LIMK2 in HuCCT1 cells; assay type: cell-based; details: HuCCT1, 6 h treatment
# Experimental: HuCCT1 cell line was cultured in Roswell Park Memorial Institute (RPMI) 1640 medium supplemented with GlutaMAX, 10% fetal bovine serum (FBS), and 1% penicillin/streptomycin. The cell line was maintained in an incubator with 5% CO2 at 37 °C. For the treatment, 3 × 10^5 cells were plated and treated with the compounds and DMSO as the control for 6 h. The cells were then lysed using RIPA buffer (50 mM Tris-HCl pH 7.4, 150 mM NaCl, 1% Triton X-100, 1% NaDOC, 0.1% SDS, 1 mM EDTA), freshly supplemented with protease and phosphatase inhibitor cocktails (Sigma-Aldrich, Darmstadt, Germany). After 1 h incubation on ice, the lysates were centrifuged for 30 min at […], and the protein-containing supernatant was collected. The protein concentrations were determined using Protein Assay Dye Reagent Concentrate (Bradford, Bio-Rad, Hercules, CA, USA) and Pre-Diluted Protein Assay Standards: Bovine Serum Albumin (BSA) Set (Thermo Fisher Scientific, Darmstadt, Germany). Then, equal amounts of protein was mixed with Roti-Load 1 dye (Carl Roth, Karlsruhe, Germany) and 4x Laemmli Buffer (Bio-Rad, Hercules, CA, USA), denatured at 95 °C, and run on NuPAGE 4–12% bis-Tris gels (Thermo Fisher Scientific). Proteins were blotted on methanol-activated PVDF Transfer Membranes (Thermo Fisher Scientific) using the wet transfer method with the transfer buffer (Thermo Fisher Scientific) and 20% methanol. Afterward, the membranes were blocked with 5% milk or 3% BSA in 0.1% TBS-T for 1 h at RT and incubated overnight at 4 °C with primary antibodies: GAPDH (catalog no. 2118, Cell Signaling Technology, MA, USA, 1:1000 dilution), LIMK1 (catalog no. 3842, Cell Signaling Technology, 1:1000 dilution), LIMK2 (catalog no. 3845, 1:500 dilution), phospho-Cofilin (catalog no. 3313, Cell Signaling Technology, 1:1000 dilution), Cofilin (catalog no. 5175, Cell Signaling Technology, 1:1000 dilution). Then, the membranes were washed with 0.1% TBS-T and incubated with secondary horseradish-peroxidase (HRP)-conjugated antibody for 2 h (catalog no. 7074, Cell Signaling Technology, 1:3000 dilution). The membranes were washed again with 0.1% TBS-T before they were developed using X-ray films (Fujifilm, Dusseldorf, Germany).
# EGFP–LIMK2 = target: T2, EGFP–LIMK2 (Homo sapiens, UniProt P53671); experiment: EGFP-LIMK2 depletion live-cell assay (Incucyte); assay type: cell-based; details: for EGFP–LIMK2 degradation (in words): live cells, over 72 h
# T2 construct: P2A remnant (from EGFP-LIMK2-P2A-mCherry; that residues stay on LIMK2 after self-cleavage is own knowledge) (C); expressed in transfected cells; host or cells: HuCCT1 (lentiviral transduction, doxycycline-inducible pCW57 vector)
# T2 sequence (P53671 whole entry): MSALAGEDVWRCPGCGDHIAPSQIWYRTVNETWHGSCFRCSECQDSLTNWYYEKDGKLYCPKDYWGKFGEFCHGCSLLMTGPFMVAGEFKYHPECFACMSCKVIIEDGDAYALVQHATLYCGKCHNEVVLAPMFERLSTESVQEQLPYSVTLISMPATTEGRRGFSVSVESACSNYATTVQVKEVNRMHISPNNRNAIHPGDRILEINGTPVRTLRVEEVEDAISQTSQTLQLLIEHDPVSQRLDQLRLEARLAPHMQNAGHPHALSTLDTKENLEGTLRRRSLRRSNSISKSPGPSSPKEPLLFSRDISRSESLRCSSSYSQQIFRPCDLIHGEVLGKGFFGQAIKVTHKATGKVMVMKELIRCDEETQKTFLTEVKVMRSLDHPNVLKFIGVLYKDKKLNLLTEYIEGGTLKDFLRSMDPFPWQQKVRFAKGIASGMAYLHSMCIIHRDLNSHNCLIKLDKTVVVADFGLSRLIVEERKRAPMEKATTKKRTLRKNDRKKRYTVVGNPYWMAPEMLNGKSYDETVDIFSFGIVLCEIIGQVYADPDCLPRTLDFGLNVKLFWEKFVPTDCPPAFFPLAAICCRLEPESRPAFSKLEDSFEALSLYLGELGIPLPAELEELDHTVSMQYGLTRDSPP
# Experimental: To enable a more comprehensive and rapid evaluation of the synthesized PROTACs, we generated a stable, doxycycline-inducible HuCCT1 cell line that expressed an N-terminally fused EGFP–LIMK2 protein. […] The degradation activity of the synthesized PROTACs set was screened at five concentrations ranging from 1 nM to 1000 nM over 72 h using live-cell imaging (Figure E).
# LIMK2 was cloned into pcDNA5-EGFP-NLS-P2A-mCherry-PTS1 (Addgene plasmid #87803) by replacing the NLS sequence with the LIMK2 sequence. pcDNA5-EGFP-NLS-P2A-mCherry-PTS1 was a gift from Andrea Musacchio. Subsequently, EGFP-[…]-P2A-mCherry was cloned into the lentiviral vector pCW57-MCS1-P2A-MCS2 (Hygro) (Addgene plasmid #80922) to generate pCW57-HygB-EGFP-LIMK2-P2A-mCherry. pCW57-MCS1-P2A-MCS2 (Hygro) was a gift from Adam Karpf.
# HEK293T cells (ATCC, CRL-3216) were cultured in Dulbecco’s Modified Eagle’s Medium (DMEM), while HUCCT1 cells (ATCC, CRL-1997) were cultured in RPMI medium supplemented with 10% fetal bovine serum (FBS) and 1% penicillin/streptomycin (P/S) antibiotic mix (all from Sigma-Aldrich, St. Louis, Missouri, USA). Lentiviral particles were produced in HEK293T cells using pCW57-HygB-EGFP-LIMK2-[…]P2A-mCherry, pMD2.G, and psPAX2. HUCCT1 cells were transduced with lentivirus to express LIMK2.
# Briefly, the cells were plated and propagated in 6-well plates overnight. The next day, transduction with viruses was performed. Two days later, transduced cells with pCW57-HygB-EGFP-LIMK2-P2A-mCherry plasmids were selected using 100 μg/mL Hygromycin B. After at least three passages, the cells were sorted for the same populations of RFP- and GFP-expressing cells using the SH800S Cell Sorter (Sony Biotechnology, San Jose, CA, USA). Stable pools of cells were maintained in the same medium used for selection.
# To assess the turnover of LIMK2, we used the Incucyte S3 or XS5 live-cell imaging system and performed the assay as previously described. , Briefly, 2,000 HUCCT1 cells stably expressing EGFP-LIMK2-P2A-mCherry were seeded per well in a 384-well plate in 50 μL of RPMI medium supplemented with 10% fetal bovine serum (FBS) and 1% penicillin/streptomycin. Cells were incubated for 24 h before treatment. To induce LIMK2 expression, 1 μg/mL of doxycycline (Sigma-Aldrich, D9891–1G) was added at the time of seeding.
# After 24 h, 50 μL of medium containing either 0.1% DMSO or the desired concentration of PROTACs was added. Fluorescence in three channels–GFP, RFP, and phase contrast (cell confluence)–was monitored every 2 h for 72 h using the Incucyte S3 or XS5 (Sartorius, Germany). LIMK2 turnover was quantified by calculating the ratio of total fluorescence intensity of RFP to GFP. Each time point represents the average ratio from three technical replicates.
# [2] = target: T3, VHL:ELOB:ELOC and LIMK1 kinase domain (Homo sapiens, UniProt P40337+P53667); experiment: SPR VHL ternary complex formation with LIMK1; assay type: binding
# T3 construct: (330–S637), LIMK1-avi; 6xHis-Z-tag (TEV-cleavable) (N, cleaved yes); made in house; host or cells: LIMK1: insect cells (baculovirus)
# T3 sequence (P40337 54-213 limits assumed, species assumed): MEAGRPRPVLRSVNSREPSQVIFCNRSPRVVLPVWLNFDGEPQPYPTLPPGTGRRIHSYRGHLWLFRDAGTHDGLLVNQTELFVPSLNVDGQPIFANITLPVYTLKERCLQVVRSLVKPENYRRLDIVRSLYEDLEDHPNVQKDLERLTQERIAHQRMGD
# T3 sequence (Q15370 whole entry partner, species assumed, the tested form may be a part): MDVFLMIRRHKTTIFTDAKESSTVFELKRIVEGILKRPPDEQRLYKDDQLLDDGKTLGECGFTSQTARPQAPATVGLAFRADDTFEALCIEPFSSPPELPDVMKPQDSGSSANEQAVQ
# T3 sequence (Q15369 17-112 partner limits assumed, species assumed): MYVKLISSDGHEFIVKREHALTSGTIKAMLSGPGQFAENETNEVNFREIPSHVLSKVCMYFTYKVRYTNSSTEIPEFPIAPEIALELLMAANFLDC
# T3 sequence (P53667 330-637 limits assumed, species assumed): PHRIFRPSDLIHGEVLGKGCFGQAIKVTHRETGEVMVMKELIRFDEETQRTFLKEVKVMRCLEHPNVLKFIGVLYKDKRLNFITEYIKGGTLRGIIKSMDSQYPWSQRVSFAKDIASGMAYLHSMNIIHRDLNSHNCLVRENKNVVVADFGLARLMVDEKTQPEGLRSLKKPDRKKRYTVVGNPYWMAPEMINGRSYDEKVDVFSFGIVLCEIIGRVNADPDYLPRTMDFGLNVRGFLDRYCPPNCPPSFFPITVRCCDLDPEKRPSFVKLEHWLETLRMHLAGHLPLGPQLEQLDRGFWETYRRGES
# Experimental: Surprised by the weak target engagement of VHL-based LIMK PROTACs, we investigated whether they form a stable ternary complex. To address this, we established an SPR-based ternary complex assay using immobilized VHL:ELOB/C complex on an SPR chip. In this assay format, the binary complex was formed by preincubating PROTACs with a 2-fold excess of purified LIMK1 kinase domain to avoid the hook effect. The binary complex was passed over an SPR surface immobilized with the VHL:ELOB/C complex. Ternary complex formation was detected as a large signal increase, as expected for the large molecular weight increase upon binding of the LIMK1 PROTAC complex (Figure C).
# (§1) Approximately 1000 RU of biotinylated VHL:ELOB:ELOC was loaded onto a Series S CM5 chip coated with Streptavidin. All experiments were performed at 25 °C. The chip was equilibrated with a running buffer containing 20 mM HEPES, pH 7.4, 150 mM NaCl, 0.5 mM TCEP, 1% BSA, and 0.05% Tween 20.
# To assess ternary complex formation, 1 μM of VHL-binding PROTAC was preincubated with a 2-fold molar excess of LIMK1 to promote binary complex formation and minimize the hook effect. […] In separate experiments, binary and ternary complex affinities were measured and compared using serial dilutions as described for LIMK1. Additionally, the association rate constant (k a), dissociation rate constant (k d) were determined for the binary complexes.
# VHL:ELOB:ELOC = VHL:ELOB:ELOC (Homo sapiens, UniProt P40337); experiment: SPR VHL binary complex affinity and kinetics; assay type: binding; details: read-out: binary affinity toward VHL
# Sequence of VHL:ELOB:ELOC (P40337 54-213 limits assumed, species assumed): as the sequence (P40337 54-213 limits assumed, species assumed) above
# Sequence of VHL:ELOB:ELOC (Q15370 whole entry partner, species assumed): as the sequence (Q15370 whole entry partner, species assumed, the tested form may be a part) above
# Sequence of VHL:ELOB:ELOC (Q15369 17-112 partner limits assumed, species assumed): as the sequence (Q15369 17-112 partner limits assumed, species assumed) above
# Experimental: as §1
# To assess ternary complex formation, 1 μM of VHL-binding PROTAC was preincubated with a 2-fold molar excess of LIMK1 to promote binary complex formation and minimize the hook effect. The resulting binary complex was injected over the immobilized VHL:ELOB:ELOC surface at a flow rate of 30 μL/min for 60 s, followed by a dissociation phase of 180 s. An increase in resonance signal relative to the binary complex alone was used as an indicator of ternary complex formation. In separate experiments, binary and ternary complex affinities were measured and compared using serial dilutions as described for LIMK1. Additionally, the association rate constant (k a), dissociation rate constant (k d) were determined for the binary complexes.
# LIMK1 = target: T4, LIMK1 (Homo sapiens, UniProt P53667); experiment: Western blot of endogenous LIMK1 in HuCCT1 cells; assay type: cell-based; details: HuCCT1, 6 h treatment
# T4 construct: host or cells: HEK293T
# T4 sequence (P53667 whole entry): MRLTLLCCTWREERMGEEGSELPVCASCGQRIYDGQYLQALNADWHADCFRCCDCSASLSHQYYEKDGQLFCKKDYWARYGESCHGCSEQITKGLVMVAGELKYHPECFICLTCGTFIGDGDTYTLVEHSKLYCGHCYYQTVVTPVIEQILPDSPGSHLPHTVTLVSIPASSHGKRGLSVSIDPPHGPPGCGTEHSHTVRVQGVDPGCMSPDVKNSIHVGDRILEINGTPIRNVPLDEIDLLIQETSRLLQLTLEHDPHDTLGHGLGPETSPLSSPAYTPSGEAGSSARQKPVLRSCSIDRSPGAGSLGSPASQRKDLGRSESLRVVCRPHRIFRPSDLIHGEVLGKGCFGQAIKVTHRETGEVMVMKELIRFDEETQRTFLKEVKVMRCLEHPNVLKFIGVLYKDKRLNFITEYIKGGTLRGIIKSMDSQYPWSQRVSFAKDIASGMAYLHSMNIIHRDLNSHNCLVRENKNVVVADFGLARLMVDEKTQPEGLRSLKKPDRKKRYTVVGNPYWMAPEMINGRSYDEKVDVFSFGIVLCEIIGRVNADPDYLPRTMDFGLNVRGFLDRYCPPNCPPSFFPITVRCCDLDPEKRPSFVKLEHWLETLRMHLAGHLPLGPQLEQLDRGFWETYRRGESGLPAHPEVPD
# Experimental: HuCCT1 cell line was cultured in Roswell Park Memorial Institute (RPMI) 1640 medium supplemented with GlutaMAX, 10% fetal bovine serum (FBS), and 1% penicillin/streptomycin. The cell line was maintained in an incubator with 5% CO2 at 37 °C. For the treatment, 3 × 10^5 cells were plated and treated with the compounds and DMSO as the control for 6 h. The cells were then lysed using RIPA buffer (50 mM Tris-HCl pH 7.4, 150 mM NaCl, 1% Triton X-100, 1% NaDOC, 0.1% SDS, 1 mM EDTA), freshly supplemented with protease and phosphatase inhibitor cocktails (Sigma-Aldrich, Darmstadt, Germany). After 1 h incubation on ice, the lysates were centrifuged for 30 min at […], and the protein-containing supernatant was collected. The protein concentrations were determined using Protein Assay Dye Reagent Concentrate (Bradford, Bio-Rad, Hercules, CA, USA) and Pre-Diluted Protein Assay Standards: Bovine Serum Albumin (BSA) Set (Thermo Fisher Scientific, Darmstadt, Germany). Then, equal amounts of protein was mixed with Roti-Load 1 dye (Carl Roth, Karlsruhe, Germany) and 4x Laemmli Buffer (Bio-Rad, Hercules, CA, USA), denatured at 95 °C, and run on NuPAGE 4–12% bis-Tris gels (Thermo Fisher Scientific). Proteins were blotted on methanol-activated PVDF Transfer Membranes (Thermo Fisher Scientific) using the wet transfer method with the transfer buffer (Thermo Fisher Scientific) and 20% methanol. […]
# HEK293T cells = experiment: CellTiter-Glo 2.0 cell viability assay; assay type: cell-based, human; details: 24-h treatment, 25 nM to 20 µM
# Experimental: The effects of the PROTAC on cell viability were determined using the CellTiter-Glo 2.0 Cell Viability Assay (Promega, G9241) following the manufacturer’s protocol. […] 40 μL of assay reagent was added and incubated for 10 min at RT. Filtered luminescence was measured using a PHERAstar plate reader (BMG Labtech), and data were analyzed using GraphPad Prism 9.
# LIMK2 [3] = target: T1, LIMK2; experiment: NanoBRET cellular target engagement, LIMK2; assay type: cell-based; set-up: host or cells: HEK293T; details: HEK293T cells, Tracer K10, 2 h; read-out: LIMK2 NanoBRET IC50
# Experimental: Gene encoding LIMK1 (Promega, NV3391) and LIMK2 (Promega, NV1531), CRBN (Promega, N2741) proteins cloned in frame with NanoLuc fusion tag at the C-terminus, were transfected into HEK293T cells using FuGENE HD (Promega, E2312) following manufacture’s protocol and proteins were allowed to express for 20 h at 37 °C and 5% CO2. […] The 10 μL of transfected cells after trypsinization and resuspending in Opti-MEM (Life Technologies, 31985070) were dispensed into each well of the 384-well plate (Greiner 781207) at a cell density of 2 × 10^5 cells/mL. For dose–response BRET measurements, compounds at various concentrations, immediately followed by Tracer K10 (Promega, Tracer DB ID: T000008) for LIMK1 and LIMK2, CRBN Tracer (Promega, Tracer DB ID: T000018) for CRBN at an optimum KD concentration chosen from TracerDB (tracerdb.org), were pipetted using an Echo acoustic dispenser (Labcyte). The system was allowed to equilibrate for 2 h at 37 °C and 5% CO2 before BRET measurements. To measure BRET signal, the NanoBRET NanoGlo Substrate (Promega, N1573) was added as per the manufacturer’s protocol, and filtered luminescence was measured on a PHERAstar plate reader (BMG Labtech) equipped with a luminescence filter pair (450 nm BP filter (donor) and 610 nm LP filter (acceptor)). For lysed NanoBRET measurement, 25 nL of Digitonin (0.05 μg/μL) was pipetted to each well using Labcyte, and the plate was incubated for 5 min at 37 °C and 5% CO2. After incubation, the BRET signals were measured by a PHERAstar plate reader following the same procedure as intact NanoBRET measurement. […] The BRET ratios are normalized to both of them in the prism output data file. Competitive displacement data were then normalized to controls and were graphed using GraphPad Prism 9 software employing a normalized 3-parameter curve fit with the following equation: Y = 100/(1 + 10̂(X – logIC50)).
# T1 sequence (P53671 whole entry): as the sequence (P53671 whole entry) above
structure (smiles),measurement,setting,value
Cc1ncc(-c2ccc(CNC(=O)[C@@H]3C[C@@H](O)CN3C(=O)[C@@H](NC(=O)c3cn(CCCCCC(=O)Nc4ncc(-c5cc(C(F)F)nn5-c5c(Cl)cccc5Cl)s4)nn3)C(C)(C)C)cc2)s1 [23c],LIMK2 degradation (Western blot),LIMK2 [1],modest LIMK2 degradation at 1 μM
same,EGFP–LIMK2 degradation (in words),EGFP–LIMK2,moderate LIMK2 degradation
Cc1ncc(-c2ccc(CNC(=O)[C@@H]3C[C@@H](O)CN3C(=O)[C@@H](NC(=O)CCCc3cn(CCCCC(=O)Nc4ncc(-c5cc(C(F)F)nn5-c5c(Cl)cccc5Cl)s4)nn3)C(C)(C)C)cc2)s1 [23h],higher affinity upon formation of ternary complex vs binary,[2],10 fold
same,Kd,VHL:ELOB:ELOC,> 1000 nM
Cc1ncc(-c2ccc(CNC(=O)[C@@H]3C[C@@H](O)CN3C(=O)[C@@H](NC(=O)CCc3cn(CCCCCC(=O)Nc4ncc(-c5cc(C(F)F)nn5-c5c(Cl)cccc5Cl)s4)nn3)C(C)(C)C)cc2)s1 [23f],Kd,VHL:ELOB:ELOC,> 1000 nM
Cc1ncc(-c2ccc(CNC(=O)[C@@H]3C[C@@H](O)CN3C(=O)[C@@H](NC(=O)CCCc3cn(CCCCCC(=O)Nc4ncc(-c5cc(C(F)F)nn5-c5c(Cl)cccc5Cl)s4)nn3)C(C)(C)C)cc2)s1 [23i],higher affinity upon formation of ternary complex vs binary,[2],10 fold
same,Kd,VHL:ELOB:ELOC,> 1000 nM
O=C1CCC(N2C(=O)c3cccc(OCc4cn(CC(=O)Nc5ncc(-c6cc(C(F)F)nn6-c6c(Cl)cccc6Cl)s5)nn4)c3C2=O)C(=O)N1 (stereo not drawn) [21a],LIMK2 degradation (Western blot),LIMK2 [1],did not degrade either isoform
same,LIMK1 degradation (Western blot),LIMK1,did not degrade either isoform
Cc1c(OCc2cn(CCCCC(=O)Nc3ncc(-c4cc(C(F)F)nn4-c4c(Cl)cccc4Cl)s3)nn2)cccc1N1CCC(=O)N(C)C1=O [THNAN69-NC],LIMK2 degradation (Western blot),LIMK2 [1],did not induce any LIMK2 degradation
same,EGFP–LIMK2 degradation (in words),EGFP–LIMK2,no degradation of LIMK2
same,cytotoxic effects,HEK293T cells,no cytotoxic effects
Cc1c(OCc2cn(CCCCCC(=O)Nc3ncc(-c4cc(C(F)F)nn4-c4c(Cl)cccc4Cl)s3)nn2)cccc1N1CCC(=O)NC1=O [22c],DC50,"EGFP–LIMK2; HuCCT1 EGFP–LIMK2 cells, live-cell kinetic assay over 72 h, read-out: DC50 (LIMK2 degradation)",13.7 nM
same,potency enhancement (DC50) relative to 21b,EGFP–LIMK2; vs 21b,2.4 fold
same,IC50,LIMK2 [3],80 nM
